Laboratory results: patent US20090270381A1, “Non-steroidal progesterone receptor modulators” (priority 2007, published 2009)

The compounds below were run against T1, PR-B (Homo sapiens, UniProt P06401) (assay: Transactivation test on antagonistic activity on PR-B). Settings: not given.
T1 construct: expressed in transfected cells
T1 sequence (P06401 1-933): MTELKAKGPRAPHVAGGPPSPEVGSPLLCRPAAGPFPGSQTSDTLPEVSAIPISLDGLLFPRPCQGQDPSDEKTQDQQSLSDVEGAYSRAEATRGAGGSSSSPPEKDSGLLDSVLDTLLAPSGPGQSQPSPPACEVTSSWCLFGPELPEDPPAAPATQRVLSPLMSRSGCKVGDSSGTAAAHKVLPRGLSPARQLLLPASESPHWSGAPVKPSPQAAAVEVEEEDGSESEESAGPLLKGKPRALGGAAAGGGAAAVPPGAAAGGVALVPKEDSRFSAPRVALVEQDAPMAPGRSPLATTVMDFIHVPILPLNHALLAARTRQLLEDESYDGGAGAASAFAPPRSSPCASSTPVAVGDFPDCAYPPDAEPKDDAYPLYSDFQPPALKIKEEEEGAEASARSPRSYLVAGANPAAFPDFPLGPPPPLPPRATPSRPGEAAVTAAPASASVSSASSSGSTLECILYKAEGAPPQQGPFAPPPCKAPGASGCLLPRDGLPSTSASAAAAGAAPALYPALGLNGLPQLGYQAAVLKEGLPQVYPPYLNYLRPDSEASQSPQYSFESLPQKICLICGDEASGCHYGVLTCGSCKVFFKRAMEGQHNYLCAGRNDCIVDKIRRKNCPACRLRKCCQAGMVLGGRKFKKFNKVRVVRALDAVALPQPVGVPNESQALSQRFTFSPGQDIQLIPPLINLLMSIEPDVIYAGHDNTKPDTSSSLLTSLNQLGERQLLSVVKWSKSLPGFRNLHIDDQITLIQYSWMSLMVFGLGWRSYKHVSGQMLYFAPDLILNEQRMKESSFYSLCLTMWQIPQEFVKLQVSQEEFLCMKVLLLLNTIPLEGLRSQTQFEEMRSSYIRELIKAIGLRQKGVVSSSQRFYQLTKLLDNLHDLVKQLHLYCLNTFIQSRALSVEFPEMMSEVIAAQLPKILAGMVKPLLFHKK
Format: cell-based
Description: The transactivation assay is carried out as described in WO 02/054064.
Compound Cc1ccc(C#CC(O)(C(=O)Nc2ccc(C#N)c(Cl)c2)C2CCCCC2)cc1 (racemic) [Example 4, rac-N-(3-Chloro-4-cyanophenyl)-2-hydroxy-2-cyclohexyl-2-(4-methylphenyl)-ethynylacetamide] has an IC50 of 2 nM. Work on N#Cc1ccc(NC(=O)C(O)(C#Cc2ccc(C(=O)O)cc2)C2CCCCC2)cc1Cl (racemic) [Example 12, rac-N-(3-Chloro-4-cyanophenyl)-2-hydroxy-2-cyclohexyl-2-(4-carboxyphenyl)-ethynylacetamide] yielded an IC50 of 1.8 nM.

Same assay, conditions: antagonistic activity on PR-B; read-out: IC50
COc1ccc(CC(O)(C(=O)Nc2ccc(C#N)c(Cl)c2)C2CCCCC2)cc1 (racemic) [Example 16, rac-N-(3-Chloro-4-cyanophenyl)-2-cyclohexyl-2-hydroxy-3-(4-methoxyphenyl)-propionamide] was tested, and the IC50 was 17 nM. In the case of “rac-N-(3-Chloro-4-cyanophenyl)-2-hydroxy-2-cyclohexyl-2-(4-fluorophenyl)-ethynylacetamide [Example 6]”, the IC50 is reported as 5 nM. Work on N#Cc1ccc(NC(=O)C(O)(C#Cc2ccccc2)C2CCCCC2)cc1Cl (single isomer, unassigned; (-)) [Example 2b, (−)-N-(3-chloro-4-cyanophenyl)-2-hydroxy-2-cyclohexyl-2-phenylethynylacetamide] yielded an IC50 of 1.8 nM. N#Cc1ccc(NC(=O)C(O)(Cc2ccccc2)C2CCCC2)cc1Cl (racemic) [Example 32, rac-N-(3-Chloro-4-cyanophenyl)-2-cyclopentyl-2-hydroxy-3-phenylpropionamide] gave an IC50 of 27 nM. “rac-N-(3-Chloro-4-cyanophenyl)-2-hydroxy-2-cyclohexyl-2-(4-trifluoromethyl-phenyl)ethynylacetamide [Example 5]” showed an IC50 of 7.9 nM.
